Source: PMC10552397 (Cell Communication and Signaling : CCS, 2023)
pEC50: −log10 of the molar value. Values joined by “and” are separate entries in the source; they are usually repeats but may differ in a detail not shown here. Identical values can stand only once.

Target: GRASP55 (Homo sapiens, UniProt Q9H8Y8)
Assay: Thermal proteome profiling compound concentration range (TPP-CCR), GRASP55
Format: binding
Design: endogenous in cells
Conditions: for GORASP2 dose response, average: average of n=1-3; for GORASP2 dose response, fit: value of fitted curve; for pEC50: 3 min at 50 °C; for normalized.Reporter.intensity: single replicates n1-n3
Procedure: Adherent cells were washed in the dish once with DPBS and harvested by Trypsin–EDTA (0.25%, Thermo Fisher Scientific, Waltham, MA, USA, #25,200,056) treatment. After addition of 35 mL DPBS, the cells were pelleted by centrifugation (300 rcf, 5 min, 4 °C), and washed twice by re-suspending and pelleting using 45 mL and 1 mL DPBS, respectively, to remove excess trypsin and for transfer into pre-weighed 2 mL Eppendorf tubes to determine the cell pellet wet weights as quality check after centrifugation (300 rcf, 5 min, 4 °C) and complete removal of the supernatant. Cells for TPP-TR were resuspended using 1 mL, and cells for TPP-CCR were resuspended using 0.4 mL ice-cold DPBS, respectively, supplemented with protease inhibitor cocktail (Roche, Basel, Switzerland, #5,892,791,001). […] Cell suspensions were shortly centrifuged (1 s or less) using a benchtop centrifuge to release trapped air and to achieve an even liquid level without pelleting the cells. The samples were then temperature treated by a 7 min pre-incubation at RT, 3 min temperature treatment in the PCR cycler (DNA Engine Tetrad 2, lid temperature 70 °C) at different temperatures (37 °C or 50 °C for TPP-CCR or the temperatures given in Table 2 for TPP-TR) and a 3 min post-incubation at RT in a metal heating block for uniform heat dissipation.
After temperature treatment, samples were supplemented with lysis buffer (final concentrations: 0.36 U/µL benzonase, 1.5 mM MgCl2, 1 mM Na3VO4, 10 mM NaF, 2.5 mM Na4P2O7, 0.8% w/v NP-40) for 1 h on ice. The lysates were cleared from cell debris as well as denatured and precipitated proteins by centrifugation at 20,000 rcf and 4 °C for 30 min. The total protein concentration of the resulting cell extracts containing the fraction of soluble, non-denatured proteins was determined (Pierce 660 nm Protein Assay, BSA as standard). Cell extracts were shock frozen in liquid nitrogen and stored at -80 °C. The three replicates for TPP-TR and TPP-CCR were prepared on consecutive days, respectively. The two (37 °C or 50 °C) x ten (concentrations) x three (replicates) = 60 TPP-CCR samples and two (treatment and control) x ten (temperatures) x three (replicates) = 60 TPP-TR samples were analyzed by LC–MS/MS. GRASP55 was additionally quantified from the TPP-TR samples by immunoblotting as described in the respective section.
For TPP-CCR, SP3 was performed as described with slight modifications to the original protocol using on average 5 µg total protein per sample and resulting in theoretically 5 µg peptides in 22 µL 50 mM triethylammonium bicarbonate per sample. For each of the two (treatment and control) x three (replicates) = six TPP-TR temperature treatment sample sets, the same volume for each of the ten temperature samples was used for SP3 processing, thus, maintaining the information about the temperature dependent non-denatured protein content. This volume was calculated such that the lowest two temperature samples (36.5 °C and 41.2 °C) contained 10 µg total protein on average. The samples were diluted using SDS containing buffer (20 µL final, final concentrations: 7.5% glycerol, 3% SDS, 37.5 mM Tris/HCl pH 7.0) and the proteins were reduced, alkylated, and precipitated on the solid phase as described using adjusted volumes (2 × due to processing 10 µg instead of 5 µg). Volumes for washing of the aggregated proteins on the solid phase and for tryptic digestion were kept unchanged, however, to maintain the maximal total protein to trypsin/Lys-C ratio at 50:1 in the two rounds of digestion (13 h and 4 h), respectively, 2 × 0.2 µg trypsin/Lys-C was used per sample, theoretically resulting in at most about 10 µg peptides in 22 µL 50 mM triethylammonium bicarbonate. […]

CCCCCC1=C/C(=C/c2[nH]c(-c3ccc[nH]3)cc2OC)N=C1C [Prodigiosin, prodigiosin]
GORASP2 dose response, average (37°C, 0.0976562 nM prodigiosin): -0.42 | GORASP2 dose response, fit (37°C, 0.0976562 nM prodigiosin): 0.0663 | GORASP2 dose response, average (37°C, 0.390625 nM prodigiosin): 0.54 | GORASP2 dose response, fit (37°C, 0.390625 nM prodigiosin): 0.10 | GORASP2 dose response, average (37°C, 1.5625 nM prodigiosin): 0.10 | GORASP2 dose response, fit (37°C, 1.5625 nM prodigiosin): 0.16 | GORASP2 dose response, average (37°C, 6.25 nM prodigiosin): 0.08 | GORASP2 dose response, fit (37°C, 6.25 nM prodigiosin): 0.23 | GORASP2 dose response, average (37°C, 25 nM prodigiosin): 0.33 | GORASP2 dose response, fit (37°C, 25 nM prodigiosin): 0.33 | GORASP2 dose response, average (37°C, 100 nM prodigiosin): 0.64 | GORASP2 dose response, fit (37°C, 100 nM prodigiosin): 0.44 | GORASP2 dose response, average (37°C, 400 nM prodigiosin): 0.47 | GORASP2 dose response, fit (37°C, 400 nM prodigiosin): 0.56 | GORASP2 dose response, average (37°C, 1600 nM prodigiosin): 0.85 | GORASP2 dose response, fit (37°C, 1600 nM prodigiosin): 0.68 | GORASP2 dose response, average (37°C, 6400 nM prodigiosin): 0.55 | GORASP2 dose response, fit (37°C, 6400 nM prodigiosin): 0.77 | GORASP2 dose response, average (50°C, 0.0976562 nM prodigiosin): 0.0745 | GORASP2 dose response, fit (50°C, 0.0976562 nM prodigiosin): 0.06 | GORASP2 dose response, average (50°C, 0.390625 nM prodigiosin): 0.13 | GORASP2 dose response, fit (50°C, 0.390625 nM prodigiosin): 0.17 | GORASP2 dose response, average (50°C, 1.5625 nM prodigiosin): 0.40 | GORASP2 dose response, fit (50°C, 1.5625 nM prodigiosin): 0.39 | GORASP2 dose response, average (50°C, 6.25 nM prodigiosin): 0.72 | GORASP2 dose response, fit (50°C, 6.25 nM prodigiosin): 0.68 | GORASP2 dose response, average (50°C, 25 nM prodigiosin): 0.81 | GORASP2 dose response, fit (50°C, 25 nM prodigiosin): 0.87 | GORASP2 dose response, average (50°C, 100 nM prodigiosin): 0.97 | GORASP2 dose response, fit (50°C, 100 nM prodigiosin): 0.96 | GORASP2 dose response, average (50°C, 400 nM prodigiosin): 0.97 | GORASP2 dose response, fit (50°C, 400 nM prodigiosin): 0.99 | GORASP2 dose response, average (50°C, 1600 nM prodigiosin): 1.04 | GORASP2 dose response, fit (50°C, 1600 nM prodigiosin): 1.00 | GORASP2 dose response, average (50°C, 6400 nM prodigiosin): 0.85 | GORASP2 dose response, fit (50°C, 6400 nM prodigiosin): 1.00 | pEC50 (EC50 of GRASP55 stabilization, HeLa wt, 6 h): 8.59 | diff pseudoR2(50-37°C) (GRASP55/GORASP2): 0.81 | pseudoR2 (dose response curve fit, 37°C) (GRASP55/GORASP2, 37°C): 0.16 | normalized.Reporter.intensity (GRASP55/GORASP2, 37°C, 0.0976562 nM prodigiosin): 0.13 and -0.19 and -1.19 | normalized.Reporter.intensity (GRASP55/GORASP2, 37°C, 0.390625 nM prodigiosin): 0.0349 and 0.46 and 1.11 | normalized.Reporter.intensity (GRASP55/GORASP2, 37°C, 1.5625 nM prodigiosin): 0.45 and -0.0156 and -0.12 | normalized.Reporter.intensity (GRASP55/GORASP2, 37°C, 6.25 nM prodigiosin): 0.55 and 0.11 and -0.42 | normalized.Reporter.intensity (GRASP55/GORASP2, 37°C, 25 nM prodigiosin): 0.93 and 0.24 and -0.19 | normalized.Reporter.intensity (GRASP55/GORASP2, 37°C, 100 nM prodigiosin): 1.03 and 0.10 and 0.80 | normalized.Reporter.intensity (GRASP55/GORASP2, 37°C, 400 nM prodigiosin): 0.81 and 0.51 and 0.08 | normalized.Reporter.intensity (GRASP55/GORASP2, 37°C, 1600 nM prodigiosin): 1.12 and 0.54 and 0.88 | normalized.Reporter.intensity (GRASP55/GORASP2, 37°C, 6400 nM prodigiosin): -0.23 and 0.82 and 1.06 | H (dose response curve fit parameters, 37°C) (GRASP55/GORASP2, 37°C, Hill slope of fit): 0.35 and 0.3479 | pseudoR2 (dose response curve fit, 50°C) (GRASP55/GORASP2, 50°C): 0.97 | normalized.Reporter.intensity (GRASP55/GORASP2, 50°C, 0.0976562 nM prodigiosin): 0.0172 and 0.11 and 0.10 | normalized.Reporter.intensity (GRASP55/GORASP2, 50°C, 0.390625 nM prodigiosin): 0.12 and 0.19 and 0.10 | normalized.Reporter.intensity (GRASP55/GORASP2, 50°C, 1.5625 nM prodigiosin): 0.43 and 0.35 and 0.41 | normalized.Reporter.intensity (GRASP55/GORASP2, 50°C, 6.25 nM prodigiosin): 0.85 and 0.64 and 0.65 | normalized.Reporter.intensity (GRASP55/GORASP2, 50°C, 25 nM prodigiosin): 0.87 and 0.76 and 0.81 | normalized.Reporter.intensity (GRASP55/GORASP2, 50°C, 100 nM prodigiosin): 0.94 and 0.97 and 0.99 | normalized.Reporter.intensity (GRASP55/GORASP2, 50°C, 400 nM prodigiosin): 0.91 and 0.97 and 1.04 | normalized.Reporter.intensity (GRASP55/GORASP2, 50°C, 1600 nM prodigiosin): 1.02 and 1.10 and 1.01 | normalized.Reporter.intensity (GRASP55/GORASP2, 50°C, 6400 nM prodigiosin): 0.82 and 0.89 and 0.84 | H (dose response curve fit parameters, 50°C) (GRASP55/GORASP2, 50°C, Hill slope of fit): 0.84 and 0.8417 | dose response of GRASP55 at 37 °C (abundance control) (HeLa wt, 6 h, 37 °C): no dose response effects | pEC50 (pEC50 of GRASP55 stabilization, HeLa wt, 6 h): 8.58
